# Assay results from US20060128666A1, “Use of sphingomyelin and lyso-sphingomyelin as absorption enhancers” (priority 2003, published 2006).
# Tests used:
# [1] = system: confluent Caco-2 cell layers; experiment: Transport of nutrients and bisphosphonates through confluent Caco-2 cell layers in two-compartment transport system, in presence of sphingolipid; format: in vitro ADME, human; conditions: for Transport velocity of testosterone / Velocity measured/Control velocity, testosterone: nutrient testosterone 10 μM
# Protocol: GlySar, mannitol, testosterone, caffeine and cholesterol were tested at a concentration of 10 μM. This concentration was reached by mixing “cold” and radioactively labeled test substrate (mannitol, testosterone and cholesterol) or by testing the radioactively labeled substrate alone (GlySar and caffeine).
# In general, the experiments were carried out in the presence and in the absence of 0.03 wt. % of bile. If bile was used in an experiment, this is explicitly stated in the results.
# For the present transport studies, Caco-2 cells (passage 34) were seeded on semi-permeable filter inserts (12-well Transwell™ plates, 0.4 μm pores, Corning Costar) at 100,000 cells.per filter (growth surface 1.13 cm^2 containing 2.5 ml of culture medium). The number of cells was counted using a Bürker-Türk count chamber. The cells on the inserts were grown for 21 days at 37° C. in a humidified incubator in an atmosphere of air containing 5% of CO2. During such a culture period, the cells undergo an enterocyte-like differentiation.
# Three filter inserts were used per experimental group.
# The radioactivity in all samples was determined as DPM (disintegrations per minute), using an LKB/Wallac S1409 scintillation counter. The amount of radioactivity was determined in the 100-μl samples of the dose compartments and in the 500-μl samples of the receptor compartments.
# In the experiments whose results are shown in Table 1, phytosphingosine was added as 0.02 wt. % (0.6 μM), ceramide III as 0.02 wt. % (0.3 μM), lysosphingomyelin as 0.008 wt. % (0.2 μM), sphinganine as 0.02 wt. % (0.6 μM) sphingosine as 0.02 wt. % (0.6 μM), egg sphingomyelin as 0.02 wt. % (0.3 μM) and glucosylceramide III as 0.02 wt. % (0.3 μM).
# Caco-2 cell layers = experiment: Transport of the lipids themselves from apical to basolateral side of Caco-2 cell layer; conditions: 19 μg/ml lysosphingomyelin or 16.6 μg/ml phytosphingosine added to apical compartment
# Protocol: The effect on transport and the transport of lipids was tested with 0.02 wt. % in transport medium (except for lysosphingomyelin and cerebroside, of which 0.008 wt. % and 0.01 wt. %, respectively, were used). Stock solutions of the test compounds were prepared in ethanol. The stock solutions were diluted in transport medium to a final concentration of 2% (v/v) ethanol in transport medium.
# The culture medium was removed from the filter inserts (apical compartment) and from under the filter inserts (basolateral compartment). The inserts were washed using phosphate-buffered saline (PBS) and were moved to a new 12-well plate, whose wells had been filled with 1.8 ml of transport medium (DMEM without phenol red, non-essential amino acids (1% v/v), L-glutamine (2 mM) and gentamicin (50 μg/ml)). The transport study was started by filling the apical chamber with 600 μl of the dosed solution. A sample of 100 μl from the apical compartment was collected directly after administration of the dosage. The 12-well plate with the filter inserts was incubated on a rotating platform (60 rpm) in a humidified incubator at 37° C. under an atmosphere of 5% of CO2 in air. Samples (500 μl) from the basolateral compartment were collected at 15, 30, 60 and 120 min after the start of the transport study. […]
# [2] = bisphosphonate EB1053 10 μM, no bile, lysosphingomyelin 0.008 wt. %
# [3] = bisphosphonate EB1053 at 10× conc., no bile, lysosphingomyelin 0.008 wt. %
# [4] = bisphosphonate d-ADP 10 μM, no bile, lysosphingomyelin 0.008 wt. %
# [5] = bisphosphonate d-ADP at 10× conc., no bile, lysosphingomyelin 0.008 wt. %
# [6] = nutrient GlySar 10 μM, additive 0.03% bile, lysosphingomyelin 0.008 wt. %
# [7] = nutrient caffeine 10 μM, additive 0.03% bile, lysosphingomyelin 0.008 wt. %
# [8] = nutrient cholesterol 10 μM, additive 0.03% bile, test lipid 0.02 wt. % (lysosphingomyelin 0.008 wt. %)
# [9] = nutrient mannitol 10 μM, additive 0.03% bile, lysosphingomyelin 0.008 wt. %
# [10] = additive 0.03% bile, lysosphingomyelin 0.008 wt. %
# [11] = no bile, test lipid 0.02 wt. % (lysosphingomyelin 0.008 wt. %)
# Protocol for Caco-2 cell monolayers: After 21 days of cell culture, the transepithelial electrical resistance (TEER) of the monolayers was used to check on the growth and differentiation of the Caco-2 cells on the filters (Duizer et al., J. Contr. Release 49: 39-49, 1997). The TEER is a measure for the differentiation status of the monolayer and was measured by means of the Millicell-ERS epithelial volt ohm meter (Millipore Co., Bedford, USA). Only monolayers having a TEER higher than 500 Ω.cm^−2 were used in the transport experiments.
# Three filter inserts were used per experimental group. The integrity of all monolayers of Caco-2 cells used in this study was determined by measuring the transepithelial electrical resistance (TEER).
compound,measurement,setting,value
"CCCCCCCCCCCCC/C=C/[C@@H](O)[C@@H](N)COP(=O)([O-])OCC[N+](C)(C)C [lysosphingomyelin, sphingosyl-phosphorylcholine]",Transport velocity of EB1053,[1]; [2],371 ± 17 cm · hour^−1 × 10^−7
same,"Velocity measured/Control velocity, EB1053",[1]; [2],12.2
same,Transport velocity of EB1053 (10× conc.),[1]; [3],414 ± 13 cm · hour^−1 × 10^−7
same,"Velocity measured/Control velocity, EB1053 (10× conc.)",[1]; [3],12.1
same,Transport velocity of d-ADP,[1]; [4],922 ± 10 cm · hour^−1 × 10^−7
same,"Velocity measured/Control velocity, d-ADP",[1]; [4],4.9
same,Transport velocity of d-ADP (10× conc.),[1]; [5],498 ± 8 cm · hour^−1 × 10^−7
same,"Velocity measured/Control velocity, d-ADP (10× conc.)",[1]; [5],6.1
same,Increase of EB-1053 transport (times faster),[1]; in presence of 0.008% (w/v) lysosphingomyelin,12 times
same,Transport velocity of GlySar,[1]; [6],35.4 ± 2.4 cm · hour^−1 × 10^−7
same,"Velocity measured/Control velocity, GlySar",[1]; [6],1
same,Transport velocity of GlySar,"[1]; nutrient GlySar 10 μM, no bile, test lipid 0.02 wt. % (lysosphingomyelin 0.008 wt. %)",79.7 ± 28.1 cm · hour^−1 × 10^−7
same,Transport velocity of caffeine,[1]; [7],560 ± 29 cm · hour^−1 × 10^−7
same,"Velocity measured/Control velocity, caffeine",[1]; [7],1
same,Transport velocity of caffeine,"[1]; nutrient caffeine 10 μM, no bile, test lipid 0.02 wt. % (lysosphingomyelin 0.008 wt. %)",559 ± 38 cm · hour^−1 × 10^−7
same,Transport velocity of cholesterol,[1]; [8],1.25 (n = 1) cm · hour^−1 × 10^−7
same,"Velocity measured/Control velocity, cholesterol",[1]; [8],1
same,Transport velocity of mannitol,[1]; [9],12.3 ± 1.8 cm · hour^−1 × 10^−7
same,"Velocity measured/Control velocity, mannitol",[1]; [9],1
same,Transport velocity of mannitol,"[1]; nutrient mannitol 10 μM, no bile, test lipid 0.02 wt. % (lysosphingomyelin 0.008 wt. %)",120 ± 9 cm · hour^−1 × 10^−7
same,Transport velocity of testosterone,[1]; [10],576 ± 24 cm · hour^−1 × 10^−7
same,"Velocity measured/Control velocity, testosterone",[1]; [10],1
same,Transport velocity of testosterone,[1]; [11],536 ± 21 cm · hour^−1 × 10^−7
same,"Velocity measured/Control velocity, testosterone",[1]; [11],1
same,Resistance between the apical and basolateral liquids,Caco-2 cell monolayers,decrease
CCCCCCCCCCCCCC[C@@H](O)[C@@H](O)[C@@H](N)CO [phytosphingosine],Lipid still demonstrated in the apical liquid after 120 minutes,Caco-2 cell layers,12.9 µg/mL
same,Lipid in the basolateral liquids (apical to basolateral transport of lipid),Caco-2 cell layers; 120 minutes,no lipids could be demonstrated
